The results in this text go back to patent US11072628B2, “Nucleoside analogues for the treatment of parasitic infections” (UNIVERSITEIT GENT, priority 2017, dated 2021).

One may read the EC50 as the concentration needed to bring the measured effect to its halfway point. As a reminder, the melting point is the temperature of the solid-liquid transition.

Values joined by “and” are separate entries in the source; they are usually repeats but may differ in a detail not shown here. Equal values may be shown once. Read-outs that look alike come from different tables or passages of the source.

A short description of data set [1]: Cytotoxicity against MRC-5 fibroblasts. The following applies: human. As for the experimental part:
Cytotoxicity was assayed against MRC-5 fibroblasts. Results are depicted in Tables 4 and 5.

Data set [2] relates to T. brucei Squib 427. The experiment in a line: In vitro drug susceptibility, T. brucei Squib 427 (resazurin). It is filed as cell-based, Trypanosoma brucei brucei. The settings on record: for EC50: Trypanosoma brucei; for selectivity index (SI) for T. b. brucei: MRC-5 versus T. b. brucei. As for the experimental part:
(§1) All trypanosome strains were cultured in the standard HMI-9 medium supplemented with 10% fetal bovine serum (FBS) at 37° C. in a 5% CO2 atmosphere.
In general terms: Resazurin is reduced to fluorescent resorufin, in cell work by metabolically active cells.

Data set [3] relates to T. cruzi (Y-strain). Kind of data set: In vivo antiparasitic activity in mice (T. cruzi Y-strain). The arrangement: species or system Trypanosoma cruzi. The settings on record: 25 mg/kg PO b.i.d. for five days starting at 5 dpi. As for the experimental part:
The animals were allowed to acclimate for 7 days before starting the experiments. […] Age-matched non-infected mice were maintained under identical conditions. The animals were divided into the following groups (n=6): uninfected (non-infected and non-treated), untreated (infected but treated only with vehicle), and treated (infected and treated with the compounds). […] Formulations were prepared freshly before each administration. Only mice with positive parasitemia were used in the infected groups. Parasitemia was individually checked by direct microscopic counting of the number of parasites in 5 μl of blood (Panel A—FIG. 5), and mice were checked for mortality daily until 30 days post-treatment (corresponding to 40 dpi). Mortality is expressed as the percent cumulative mortality (CM; Panel B—FIG. 5).

Data set [4] concerns T. vaginalis trophozoites (metronidazole susceptible G3 strain). Kind of data set: Trichomonas vaginalis in vitro assay. Format: cell-based. The following applies: Trichomonas vaginalis, average of 2-5 independent replicates. The procedure: T. vaginalis trophozoites (metronidazole susceptible G3 strain) were grown in vitro in modified Diamond's media (MDM) with 10% heat inactivated horse serum (HIHS) acquired from Gibco Life Technologies. After medium preparation, the pH was adjusted to 6.3-6.4 employing 1.0 M aq. HCl. Parasites cultures were passaged every day by taking 1 mL of cell culture into a 25 mL bottle of fresh media to ensure the cells were kept at the appropriate concentration of ˜2×10^6 cells/mL. The culture flasks were filled completely and tightly capped to provide the cells with an anaerobic environment. The parasites were maintained in incubation at 37° C. When culturing in multiwell plates, the plates were sealed with Nescofilm® and inserted in BD GasPak EZ pouches (BD Diagnostics, UK) in order to create anaerobic conditions. Assays were performed with 5×10^4 trophozoites/well (100 μL) to which compound dilutions were added (100 μL). Outside wells of columns and rows were filled with 200 μL of sterile water. Plates were sealed with Nescofilm® and incubated under anaerobic conditions as described above. After 24 h, 30 μL of assay dye solution (resorufin) was added, and incubated for 1-2 h before being read using Fluostar Optima (BMG Labtech, UK) at an excitation wavelength of 544 nm and an emission wavelength of 620 nm.

Data set [5] concerns T. cruzi Tulahuen CL2 β galactosidase strain. The experiment in a line: T. cruzi Tulahuen CL2 β galactosidase strain on MRC-5SV2 cells (CPRG). Format: cell-based, Trypanosoma cruzi. The following applies: Trypanosoma cruzi, TULAHUEN, MRC-5 SV2. As for the experimental part:
All cultures and assays were conducted at 37° C./5% CO2. […] The results were expressed as % reduction in parasite burdens compared to control wells from which an EC50 was calculated.

For data set [6], the system named is T. b. brucei ISMR1. The experiment in a line: microbe, parasite or virus in culture. Format: cell-based, Trypanosoma brucei brucei. The following applies: for EC50: Trypanosoma brucei, read-out: ISMR1 EC50; for RF (resistance factor) ISMR1: ratio of EC50 between ISMR1 and Lister-427. As for the experimental part:
(§2) Fluorescence was determined using a FLUOstar Optima (BMG Labtech, Durham, N.C.) and the results fitted to a sigmoid curve with variable slope using Prism 5.0 (GraphPad, San Diego, Ca).

Data set [7] deals with T. b. brucei TbAT1-KO. Kind of data set: microbe, parasite or virus in culture. It is filed as cell-based, Trypanosoma brucei brucei. The following applies: for EC50: Trypanosoma brucei, read-out: TbAT1-KO EC50; for RF (resistance factor) TbAT1-KO: ratio of EC50 between TbAT1-KO and Lister-427. As for the experimental part: as §2
The test system of data set [8] is T. b. brucei B48. Kind of data set: microbe, parasite or virus in culture. The settings on record: for EC50: Trypanosoma brucei, read-out: B48 EC50; for RF (resistance factor) B48: ratio of EC50 between B48 and Lister-427. It is filed as cell-based, Trypanosoma brucei brucei. As for the experimental part:
as §2

For data set [9], the system named is T. b. brucei Lister 427 (wild-type). Kind of data set: Drug susceptibility test, Lister 427WT (resazurin). Format: cell-based. The following applies: Trypanosoma brucei, read-out: Lister-427 EC50. As for the experimental part: as §2
The subject of data set [10] is T. b. rhodesiense STIB-900. The experiment in a line: In vitro drug susceptibility, T. b. rhodesiense STIB-900 (resazurin). Format: cell-based, Trypanosoma brucei rhodesiense. The settings on record: for EC50: Trypanosoma brucei, RHODESIENSE
The procedure:
as §1

The test system of data set [11] is T. b. brucei Squib 427. The experiment in a line: In vivo antiparasitic activity in mice (T. brucei; acute model). The arrangement: species or system Trypanosoma brucei brucei. The following applies: for clinical symptoms of trypanosomiasis / parasitemia: infected mice, 5 consecutive days, test compound 25 mg/kg PO b.i.d. (FH7429_D also 10 mg/kg s.i.d. IP), suramin 10 mg/kg. The procedure:
The test compound of the invention was formulated in 10% (V/V) PEG400 in water at 2 mg/mL and was freshly prepared at every administration. The test compound was administered orally (PO) b.i.d. for 5 days at 25 mg/kg. The reference drug suramin was formulated in PBS at 2.5 mg/mL and administered s.i.d. IP for 5 days at 10 mg/kg. Treatment was initiated ½ hour prior to the IP infection.

[12] abbreviates: MRC-5 fibroblasts, MRC-5 EC50, Table 4, cytotoxicity.
Setting [13] is: MRC-5 fibroblasts, MRC-5 EC50, Table 5, cytotoxicity.
[14] abbreviates: read-out: T.b. brucei EC50, Table 4, average of 2-6 independent determinations.
The mark [15] stands for this setting: Table 5, average of 2-4 independent replicates.

Take `Nc1ncnc2c1c(-c1ccc(Cl)cc1)cn2[C@@H]1O[C@H](CO)[C@@H](O)[C@H]1O` [TH1012, 4-amino-5-(4-chlorophenyl)-N7-(β-D-ribofuranosyl)-pyrrolo[2,3-d]pyrimidine]: the EC50 came to 27000 nM in data set [1] (setting [12]); 27000 nM in data set [1] (setting [13]); 7580 nM in [2] (setting [14]); 30 nM in data set [4] (Table 6); 470 nM in data set [5] (setting [15]). Besides, the “anti-trypanosomal activity against T. brucei, in words” value in data set [2] was “low μM EC50”. In data set [3], the blood parasitemia result is recorded as “full suppression of parasitemia”. The “mortality caused by the infection” value in data set [3] is recorded as “protected animals from mortality”.
On to `Nc1ncnc2c1ccn2[C@@H]1O[C@H](CO)[C@@H](O)[C@H]1O` [FH5284, tubercidin], for which the EC50 in data set [1] was 2230 nM; in data set [6], 1700 ± 500 nM; in data set [7] it was 2600 ± 700 nM; in data set [8], 4300 ± 1300 nM; in data set [2] (setting [14]) it was 480 nM; in data set [5] (setting [15]), 340 nM. The 50% effective concentration (EC50) in data set [9] stood at 150 ± 30 nM. In addition, in data set [7], the “RF (resistance factor) TbAT1-KO” value is > 17 and 17.2.
Regarding `Nc1ncnc2c1c(-c1ccc(Cl)c(Cl)c1)cn2[C@@H]1O[C@H](CO)[C@@H](O)[C@H]1O` [FH3147, 4-amino-5-(3,4-dichlorophenyl)-N7-(β-D-ribofuranosyl)-pyrrolo[2,3-d]pyrimidine], the melting point fell in the range of 221 to 223 °C. In addition, a half-maximal effect in data set [1] (setting [12]) (EC50) was put at 14700 nM. Further, the concentration for a half-maximal effect (EC50) in data set [1] (setting [13]) was found to be 14700 nM. The “selectivity index (SI) for T. b. brucei” value in data set [2] is on record as around 5. In addition, in [2] (setting [14]), the concentration giving a half-maximal response (EC50) was 3070 nM. The 50% effective concentration (EC50) in data set [10] (read-out: T.b. rhod. EC50) stood at 320 nM. In [4] (Table 6), this compound had a concentration for a half-maximal effect (EC50) of 20 nM. In data set [5] (setting [15]), this compound yielded a half-maximal effective concentration (EC50) of 190 nM.
For the compound `Cc1ccc(C(=O)Nc2ccc(S(=O)(=O)O)c3cc(S(=O)(=O)O)cc(S(=O)(=O)O)c23)cc1NC(=O)c1cccc(NC(=O)Nc2cccc(C(=O)Nc3cc(C(=O)Nc4ccc(S(=O)(=O)O)c5cc(S(=O)(=O)O)cc(S(=O)(=O)O)c45)ccc3C)c2)c1` [Suramin, reference compound], the “clinical symptoms of trypanosomiasis / parasitemia” value in data set [11] was “no symptoms nor parasitemia developed”. For the same compound, the half-maximal effective concentration (EC50) turned out to be 50 nM in [2] (Table 1, average of 2-4 independent determinations, read-out: T. brucei brucei EC50); 50 nM in data set [2] (Table 4, average of 2-6 independent determinations, read-out: T.b. brucei EC50); 40 nM in data set [10] (Table 1, average of 2-4 independent determinations, read-out: T. brucei rhod. EC50); 40 nM in [10] (Table 4, average of 2-6 independent determinations, read-out: T.b. rhod. EC50).
Consider `Nc1ncnc2c1c(-c1ccc(Cl)cc1)cn2[C@@H]1O[C@H](CO)C[C@H]1O` [FH8512, 4-amino-5-(4-chlorophenyl)-N7-(3′-deoxy-β-D-ribofuranosyl)-pyrrolo[2,3-d]pyrimidine], for which the 50% effective concentration (EC50) is 19100 nM in data set [1] (MRC-5 fibroblasts, MRC-5 EC50, Table 1, cytotoxicity); 19100 nM in data set [1] (MRC-5 fibroblasts, MRC-5 EC50, Table 2, cytotoxicity); 2300 nM in data set [2] (read-out: T. brucei brucei EC50, Table 1, average of 2-4 independent determinations); 1800 nM in data set [10] (read-out: T. brucei rhod. EC50); 170 nM in data set [4] (Table 3); 50 nM in [5] (Table 2, average of 2-3 independent replicates). Moreover, the blood parasitemia entry in data set [3] is “suppress blood parasitemia”. In addition, in [3], the “mortality caused by the infection” value is “protect animals from mortality”.
For `Nc1ncnc2c1c(-c1ccccn1)cn2[C@@H]1O[C@H](CO)[C@@H](O)[C@H]1O` [TH1008, 4-amino-5-(pyrid-2-yl)-N7-(β-D-ribofuranosyl)-pyrrolo[2,3-d]pyrimidine], the EC50 in [6] came to 430 ± 70 nM; in [7] it was 400 ± 90 nM; in [8], 270 ± 40 nM; in data set [2] (setting [14]), 360 nM; in [10] (read-out: T.b. rhod. EC50), 31 nM; in [5] (setting [15]), 5020 nM. Further, the half-maximal effective concentration (EC50) in [9] was 170 ± 40 nM. Besides, in data set [6], the “RF (resistance factor) ISMR1” value stood at 2.5. For the same compound, the “RF (resistance factor) TbAT1-KO” value in [7] amounted to 2.4. For the same compound, the “RF (resistance factor) B48” value in data set [8] is listed as 1.6. Also, in data set [11] (25 mg/kg PO b.i.d. for 5 days), the “detectability of parasites in the peripheral blood” value is reported as “undetectable from 8 dpi onwards”. In addition, the “parasites in the peripheral blood, mean Log10” value in data set [11] (4 dpi, 25 mg/kg PO b.i.d. for 5 days) was 7.5. The “parasitological cure (sub-inoculation in naive mice)” value in [11] (animals surviving until day 21 post infection) is recorded as “total parasitological cure”. Also, the “clinical symptoms of trypanosomiasis / parasitemia” value in data set [11] is listed as “no clinical symptoms of trypanosomiasis were observed”. The adverse drug effects entry in [11] (mice, 5 days treatment) is reported as “No signs of adverse drug effects were observed”. In addition, the “anti-trypanosomal activity against T. brucei, in words” value in [2] is recorded as “nanomolar antitrypanosomal activity”. The “selectivity index (SI) for T. b. brucei” value in [2] is given as 50. In [10] (MRC-5 versus T. b. rhodesiense), the “selectivity index for T. b. rhodesiense” value is around 500.
In the case of `N=C(N)c1ccc(/N=N/Nc2ccc(C(=N)N)cc2)cc1` [Diminazene], the half-maximal effective concentration (EC50) in data set [6] amounted to 2900 ± 420 nM; in [7], 4500 ± 900 nM; in data set [8], 7200 ± 1600 nM; in data set [9], 420 ± 64 nM. Also, in data set [6], the “RF (resistance factor) ISMR1” value came out at 6.9. Also, the “RF (resistance factor) TbAT1-KO” value in [7] is given as 10.6.
Regarding `N=C(N)c1ccc(OCCCCCOc2ccc(C(=N)N)cc2)cc1` [Pentamidine], the concentration for a half-maximal effect (EC50) in data set [6] was determined as 140 ± 40 nM; in [7], 18 ± 2 nM; in data set [8], 990 ± 160 nM; in [9] (reference cell line), 11 ± 1 nM. For the same compound, the “RF (resistance factor) TbAT1-KO” value in data set [7] is 1.8.
With `CC[n+]1c(-c2ccccc2)c2cc(N/N=N/c3cccc(C(=N)N)c3)ccc2c2ccc(N)cc21` [Isometamidium], in [6], the EC50 was 3100 ± 500 nM and the “RF (resistance factor) ISMR1” value was 4.81. Also, in data set [7], the EC50 stood at 750 ± 140 nM and the “RF (resistance factor) TbAT1-KO” value is 1.2. Moreover, in data set [8], the EC50 is 560 ± 130 nM and the “RF (resistance factor) B48” value is recorded as 0.85. Also, the 50% effective concentration (EC50) in data set [9] amounted to 650 ± 85 nM.
